Measurements published in patent publication EP4722219A1 (Gan & Lee Pharmaceuticals Co., Ltd., priority 2023, dated 2024).
Where two headings read alike, the source gives them in different places.

Target: CRBN protein (Homo sapiens, UniProt Q96SW2)
Test: Binding activity to E3 ubiquitin ligase CRBN (HTRF competitive binding kit, Thalidomide-Red)
Excerpt: Binding activity of the E3 ligase inhibitor disclosed in the present invention to E3 ubiquitin ligase CRBN
CRBN binding activity test kit (CEREBLON BINDING KITS (PE, 64BD CRBN PEG).
The detection is based on homogeneous time-resolved fluorescence (HTRF) technology.
This kit uses a europium-labeled GST antibody (GST Eu Cryptate Antibody) as the donor and XL665-labeled thalidomide (Thalidomide-Red reagent) as the receptor. The donor binds to the GST-tagged CRBN protein.
The donor and receptor were each diluted 50-fold using the buffer provided in the kit (PROTAC binding buffer 1). The CRBN protein was diluted 45-fold. An 8mM solution of the compound disclosed herein was diluted 10-fold using the diluent provided in the kit (1X diluent), followed by 7 successive 5-fold serial dilutions of the resulting solution.
The ratio of the acceptor and donor emission signals was calculated for each individual well.
IC50 values was calculated based on compound concentration, Ratio, and coefficient of variation using GraphPad Prism.

[1] = competition with XL665-labeled thalidomide for GST-tagged CRBN protein, HTRF, 3 hours at room temperature
[2] = competition with XL665-labeled thalidomide for GST-tagged CRBN protein, HTRF, 3 hours at room temperature, read-out: IC50

Row | Compound | IC50 [2] [µM] | also measured
1 | COc1cc2c(cc1C(=O)N[C@H]1CCC(=O)NC1=O)OCC[C@H]1CNCCN21 [Compound B9, (S)-N-((S)-2,6-Dioxopiperidin-3-yl)-10-methoxy-2,3,4,4a,5,6-hexahydro-1H-benzo[b]pyrazine[1,2-d][1,4]oxazepine-9-carboxamide] | – | IC50: 13 µM
2 | COc1cc2c(cc1C(=O)N[C@H]1CCC(=O)NC1=O)CCC1(CCNCC1)O2 [Compound A11, (S)-N-(2,6-dioxyhesperidin-3-yl)-7-methoxyspiro[chroman-2,4'-piperidine]-6-carboxamide] | – | IC50 [1]: 14.4 µM
3 | O=C1CCC(n2c(=O)n3c4c(cccc42)NCC3)C(=O)N1 (stereo not drawn) [Compound D3, 3-(2-oxo-5,6-dihydro-4H-imidazo[1,5,4-de]quinoxalin-1(2H)-yl)piperidine-2,6-dione] | 0.21 | –
4 | O=C1CCC(Nc2ccc3c(c2)CC2(CCNCC2)O3)C(=O)N1 (stereo not drawn) [Compound C8, 3-((3H-spiro[benzofuran-2,4'-piperidine]-5-yl)amino)piperidine-2,6-dione] | 16.4 | –
5 | O=C1CCC(Nc2ccc3c(c2)OC2(CCNCC2)CC3)C(=O)N1 (stereo not drawn) [Compound C4, 3-(Spiro[2,4'-piperidino]-7-ylamino)piperidine-2,6-dione] | – | IC50 [1]: 10.1 µM
6 | CN(C(=O)c1ccc2c(c1)OC[C@H]1CNCCN21)[C@H]1CCC(=O)NC1=O [Compound B7, (R)-N-((S)-2,6-Dioxyhesperidin-3-yl)-N-methyl-1,2,3,4,4a,5-hexahydrobenzo[b]pyrazino[1,2-d][1,4]oxazine-8-carboxamide] | – | IC50 [1]: 5.32 µM
7 | O=C1CCC(Nc2ccc3c(c2)COC[C@H]2CNCCN32)C(=O)N1 (stereo partly drawn) [Compound C13] | 8.39 | –
8 | O=C1CC[C@H](NC(=O)c2c(F)ccc3c2OCC32CCNCC2)C(=O)N1 [Compound A2, (S)-N-(2,6-dioxopiperidin-3-yl)-6-fluoro-2H-spiro[benzofuran-3,4'-piperidine]-7-carboxamide] | 11.9 | –
9 | Cn1c(=O)n(C2CCC(=O)NC2=O)c2ccc3c(c21)OC[C@H]1CNCCN31 (stereo partly drawn) [Compound D7] | 0.4 | –
10 | Cn1c(=O)n(C2CCC(=O)NC2=O)c2cc3c(cc21)OC1(CCNCC1)CC3 (stereo not drawn) [Compound D5] | – | IC50: 0.66 µM
11 | O=C1CC[C@H](NC(=O)c2ccc3c(c2)OCC[C@H]2CNCCN32)C(=O)N1 [Compound B11, (S)-N-((S)-2,6-Dioxopiperidin-3-yl)-2,3,4,4a,5,6-hexahydro-1H-benzo[b]pyrazino[1,2-d][1,4]oxazepine-9-carboxamide] | 54.8 | –
12 | O=C1CC[C@H](NC(=O)c2ccc3c(c2F)OC[C@H]2CNCCN32)C(=O)N1 [Compound B5, (R)-N-((S)-2,6-Dioxyhesperidin-3-yl)-7-fluoro-1,2,3,4,4,4a,5-hexahydrobenzo[b]pyrazino[1,2-d][1,4]oxazine-8-carboxamide] | – | IC50: 60 µM
13 | COc1c(C(=O)N[C@H]2CCC(=O)NC2=O)ccc2c1OC[C@H]1CNCCN21 [Compound B6, (R)-N-((S)-2,6-Dioxyhesperidin-3-yl)-7-methoxy-1,2,3,4,4a,5-hexahydrobenzo[b]pyrazino[1,2-d][1,4]oxazine-8-carboxamide] | – | IC50: 49.1 µM
14 | O=C1CCC(Nc2ccc3c(c2)CCC2(CCNCC2)O3)C(=O)N1 (stereo not drawn) [Compound C3] | – | IC50 [1]: 5.53 µM
15 | O=C1CCC(Nc2ccc3c(c2)N2CCNC[C@@H]2CCO3)C(=O)N1 (stereo partly drawn) [Compound C11, 3-(((S)-2,3,4,4a,5,6-Hexahydro-1H-benzo[b]pyrazine[1,2-d][1,4]oxacyclopropane-10-yl)amino)piperidine-2,6-dione] | 21.1 | –
16 | COc1cc2c(cc1C(=O)N[C@H]1CCC(=O)NC1=O)OC[C@H]1CNCCN21 [Compound B4, (R)-N-((S)-2,6-Dioxyhesperidin-3-yl)-O-9-methoxy-1,2,3,4,4a,5-hexahydrobenzo[b]pyrazino[1,2-d][1,4]oxazine-8-carboxamide] | – | IC50: 10.9 µM
17 | O=C1CC[C@H](NC(=O)c2ccc3c(c2F)OCC32CCNCC2)C(=O)N1 [Compound A1, (S)-N-(2,6-dioxopiperidin-3-yl)-7-fluoro-2H-spiro[benzofuran-3,4'-piperidine]-6-carboxamide] | 15.5 | –
18 | Cn1c(=O)n(C2CCC(=O)NC2=O)c2ccc3c(c21)OCC31CCNCC1 (stereo not drawn) [Compound D2, 3-(1-Methyl-2-oxo-1,2-dihydro-3H,7H-spiro[benzofuro[6,7-d]imidazole-6,4'-piperidine]-3-yl)piperidine-2,6-dione] | 0.028 | –
19 | COc1cc2c(cc1C(=O)N[C@H]1CCC(=O)NC1=O)OC1(CCNCC1)CC2 [Compound A12, (S)-N-(2,6-dioxohesperidin-3-yl)-6-methoxyspiro[chroman-2,4'-pyridine]-7-carboxamide] | – | IC50: 20.3 µM
20 | O=C1CCC(Nc2ccc3c(c2)OCC2(CCNCC2)C3)C(=O)N1 (stereo not drawn) [Compound C6, 3-(Spiro[benzopyran-3,4'-piperidine]-7-ylamino)piperidine-2,6-dione] | 3.38 | –

Row | Compound | IC50 [2] [µM] | also measured
21 | CN(c1ccc2c(c1)COC[C@H]1CNCCN21)C1CCC(=O)NC1=O (stereo partly drawn) [Compound C14] | 1.85 | –
22 | O=C1CCC(Nc2ccc3c(c2)OCC32CCNCC2)C(=O)N1 (stereo not drawn) [Compound C1] | 1.9 | –
23 | O=C1CC[C@H](NC(=O)c2cc3c(cc2F)CCC2(CNC2)O3)C(=O)N1 [Compound A7, (S)-N-(2,6-dioxopiperidin-3-yl)-6-fluoro-spiroazetidine-3,2-dihydropyridine-7-carboxamide] | – | IC50: 27.4 µM
24 | O=C1CC[C@H](NC(=O)c2ccc3c(c2)OC[C@@H]2CNCCN32)C(=O)N1 [Compound B1] | – | IC50: 40.3 µM
25 | Cn1c(=O)n(C2CCC(=O)NC2=O)c2ccc3c(c21)C1(CCNCC1)CO3 (stereo not drawn) [Compound D4, 3-(1-Methyl-2-oxo-1,2-dihydro-3H,7H-spiro[benzofuran[4,5-d]imidazole-8,4'-piperidine]-3-yl)piperidine-2,6-dione] | – | IC50: 2.3 µM
26 | COc1cc2c(cc1C(=O)N[C@H]1CCC(=O)NC1=O)C1(CCNCC1)CO2 [Compound A9, (S)-N-(2,6-dioxopiperidin-3-yl)-6-methoxy-2H-spiro[benzofuran-3,4'-piperidine]-5-carboxamide] | 29.1 | –
27 | O=C1CCC(Nc2ccc3c(c2)OC2(CCNCC2)C3)C(=O)N1 (stereo not drawn) [Compound C5, 3-((3H-spiro[benzofuran-2,4'-piperidine]-6-yl)amino)piperidine-2,6-dione] | 5.45 | –
28 | O=C1CC[C@H](NC(=O)c2cc3c(cc2F)N2CCNC[C@H]2CO3)C(=O)N1 [Compound B8, (S)-N-((S)-2,6-Dioxyhesperidin-3-yl)-9-fluoro-1,2,3,4,4,4a,5-hexahydrobenzo[b]pyrazino[1,2-d][1,4]oxazine-8-carboxamide] | 27 | –
29 | CN(c1ccc2c(c1)OC[C@H]1CNCCN21)C1CCC(=O)NC1=O (stereo partly drawn) [Compound C10, 3-(((R)-1,2,3,4,4a,5-Hexahydrobenzo[b]pyrazino[1,2-d][1,4]oxazine-8-yl)(methyl)amino)piperidine-2,6-dione] | 2.06 | –
30 | Cn1c(=O)n(C2CCC(=O)NC2=O)c2ccc3c(c21)OC[C@H]1CNCCN31 (stereo in doubt) [Compound D6, 3-((R)-3-Methyl-2-oxo-2,3,5,5a,6,7,8,9-octahydro-1H-imidazo[4',5':5,6]benzo[1,2-b]pyrazino[1,2-d][1,4]oxazine-1-yl)piperidine-2,6-dione] | 0.55 | –
31 | O=C1CC[C@H](NC(=O)c2cc3c(cc2F)CCC2(CCNCC2)O3)C(=O)N1 [Compound A6, (S)-N-(2,6-dioxopiperidin-3-yl)-6-fluorospiro[chroman-2,4'-piperidine]-7-carboxamide] | 35.3 | –
32 | COc1cc2c(cc1C(=O)N[C@H]1CCC(=O)NC1=O)COC[C@H]1CNCCN21 [Compound B10, (R)-N-((S)-2,6-Dioxopiperidin-3-yl)-10-methoxy-1,2,3,4,4a,5-hexahydro-7H-benzo[e]pyrazino[2,1-c][1,4]oxacyclopropane-9-amide] | – | IC50: 22.4 µM
33 | O=C1CCC(Nc2ccc3c(c2)OC[C@@H]2CNCCN32)C(=O)N1 (stereo partly drawn) [Compound C16, 3-(((S)-1,2,3,4,4a,5-hexahydrobenzo[b]pyrazine[1,2-d][1,4]oxazine-8-yl)amino)piperidine-2,6-dione] | 2.16 | –
34 | CN(c1ccc2c(c1)OCC21CCNCC1)C1CCC(=O)NC1=O (stereo not drawn) [Compound C15, 3-(Methyl(2H-spiro[benzofuran-3,4'-piperidine]-6-yl)amino)piperidine-2,6-dione] | 0.72 | –
35 | COc1c(C(=O)N[C@H]2CCC(=O)NC2=O)ccc2c1OCC21CCNCC1 [Compound A8, (S)-N-(2,6-dioxohesperidin-3-yl)-7-methoxy-2H-spiro[benzofuran-3,4'-piperidine]-6-carboxamide] | – | IC50 [1]: 24.6 µM
36 | O=C1CCC(Nc2ccc3c(c2)N2CCNC[C@@H]2CO3)C(=O)N1 (stereo partly drawn) [Compound C9, 3-(((R)-1,2,3,4,4a,5-Hexahydrobenzo[b]pyrazine[1,2-d][1,4]oxazine-9-yl)amino)piperidine-2,6-dione] | 12.8 | –
37 | O=C1CCC(Nc2ccc3c(c2)OCC[C@H]2CNCCN32)C(=O)N1 (stereo partly drawn) [Compound C12] | 5.46 | –
38 | O=C1CC[C@H](NC(=O)c2cc3c(cc2F)C2(CCNCC2)CO3)C(=O)N1 [Compound A4, (S)-N-(2,6-dioxopiperidin-3-yl)-5-fluoro-2H-spiro[benzofuran-3,4'-piperidine]-6-carboxamide] | 23.5 | –
39 | O=C1CCC(N2Cc3c(ccc4c3OCC43CCC4(CC3)CNC4)C2=O)C(=O)N1 (stereo not drawn) [Compound D9, 3-(6''-oxo-6''-,8''-dihydro-2''-H,7''-H-dipyrazolo[azetidin-3,1'-cyclohexane-4'-, 3"-furan[2,3-e]isoindole]-7"-yl)piperidine-2,6-dione] | 0.65 | –
